Calls of active or inactive are those of the source.
Assays:
Assay type in all cases: functional, cell-based
Leukemia cell [1] = assay: Effect on osteoclast differentiation in human CSF1-induced mouse primary bone marrow derived acute myeloid leukemia cells at 250 nM assessed as reduction in PU.1 enrichment at PU.1 enhancers near d Fosl2 measured by Conventional ChIP analysis
Leukemia cell [2] = assay: Effect on osteoclast differentiation in human CSF1-induced mouse primary bone marrow derived acute myeloid leukemia cells at 250 nM assessed as reduction in PU.1 enrichment at PU.1 enhancers near Nfatc1 measured by Conventional ChIP analysis
Leukemia cell [3] = assay: Downregulation of Fosl2 mRNA expression in osteoclasts of human CSF1-induced mouse primary bone marrow derived acute myeloid leukemia cells at 250 nM measured by RT-qPCR analysis
Leukemia cell [4] = assay: Downregulation of Nfatc1 mRNA expression in osteoclasts of human CSF1-induced mouse primary bone marrow derived acute myeloid leukemia cells at 250 nM measured by RT-qPCR analysis

Measured: Activity

Cc1sc2c(c1C)C(c1ccc(Cl)cc1)=N[C@@H](CC(=O)OC(C)(C)C)c1nnc(C)n1-2
active: Leukemia cell [1] | Leukemia cell [2] | Leukemia cell [3] | Leukemia cell [4]
